Measured values published in the METLIN SMRT retention time set (Domingo-Almenara et al. 2019).

Assay: gradient 5% acetonitrile 3 min, to 50% in 2 min, to 85% in 15 min, held 3 min, 100 µL/min
Conditions: column: Zorbax Extend-C18 2.1 x 50 mm; eluents: water / acetonitrile, 0.1% formic acid
Outline: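 Mixtures of ~100 pure standards were chromatographed on a Zorbax Extend-C18 column (2.1 × 50 mm, 1.8 μm) at 100 μL/min using water and acetonitrile, each with 0.1% formic acid. Detection used a quadrupole time-of-flight mass spectrometer in positive and negative ionization mode, and data collection spanned 3 months. Retention time was obtained from adduct peaks picked computationally and each checked manually.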

| Compound | RP-LC retention time |
| --- | --- |
| O=C(Nc1ccc(Br)cc1)C1CCN(c2cc(N3CCCC3)ncn2)CC1 | 721 s |
| Cc1cc(-c2nnc(-c3ccc(F)cc3)o2)c(C)n1CC(=O)NC1CCCC1 | 908 s |
| COc1ccc(CNC2=NCCNC23CCN(S(=O)(=O)c2ccc(CC(C)C)cc2)CC3)cc1 | 878 s |
| CCN1N=C(C(=O)N2CCOCC2)S(=O)(=O)c2cc(Cl)ccc21 | 760 s |
| CCCn1cnc2cc(CNC(=O)c3ccc(C(F)(F)F)cc3)ccc21 | 674 s |
| NC(=O)Cc1ccc(NS(=O)(=O)/C=C/c2ccccc2)cc1 | 650 s |
| CCOC(=O)c1ccc(NC(=O)CN2CC(c3nc(-c4cccc(Cl)c4)no3)C2)cc1 | 650 s |
| O=C(Cc1ccsc1)N1CCC2(CC1)N=C(c1cccc(Br)c1)NO2 | 889 s |
| Cc1cc(C)n2c(C)nnc2c1 | 570 s |
| COc1ccc(-n2ncc3c(=O)n(Cc4nc(-c5ccccc5C)no4)cnc32)cc1 | 1060 s |
| COc1ccc(C(=O)Nc2ccc3c(c2)N(C(=O)C2CCCO2)CC3)c(OC)c1OC (stereo unspecified) | 615 s |
| OC(COc1ccc(Cl)cc1Cl)CN1CCCC1 (stereo unspecified) | 570 s |
| Cc1ccc(C)c(N2CCN(S(=O)(=O)c3cc(-c4cnn5c(C)cc(C)nc45)ccc3C)CC2)c1 | 1270 s |
| Cc1ccc(NC(=O)N2CCN(CCn3c(C(F)(F)F)nc4cccnc43)CC2)cc1 | 648 s |
| CC(=O)N1CCc2cc(N3CC(C(=O)N4CCC5(CC4)OCCO5)CC3=O)ccc21 (stereo unspecified) | 620 s |
| COc1ccc(C2C=C(c3ccc4c(c3)OCO4)Oc3c2c(=O)oc2ccccc32)cc1OC (stereo unspecified) | 1090 s |
| CC1CCN(Cc2csc(N3CCN(C(=O)CSc4ccccc4)CC3)n2)CC1 | 1130 s |
| Cc1csc(-c2csc(S(=O)(=O)N3CCC(Cc4ccccc4)CC3)c2)n1 | 1270 s |

| Compound | RP-LC retention time |
| --- | --- |
| O=C(Nc1cc(-c2ccccn2)no1)c1ccc(Br)cc1 | 868 s |
| CCc1ccc(NC(=O)Cn2nc3c(N4CCSCC4)nccn3c2=O)cc1 | 888 s |
| Cc1cccc(NC(=O)C2C(=O)N(C)C3(C)CC2c2ccccc2O3)c1 (stereo unspecified) | 995 s |
| O=C(Nc1c(C(=O)N2CCN(c3ccccn3)CC2)oc2ccccc12)c1cccc([N+](=O)[O-])c1 | 744 s |
| CC(C)(C)NC(=O)c1ccc2c(c1)CCCN2S(=O)(=O)c1ccccc1 | 979 s |
| CC(C)c1ccc(-c2noc(N3CCC(C(=O)N4CCCCCC4)CC3)n2)cc1 | 1180 s |
| CC(C)(O)[C@@H]1[C@@H]2OC(=O)[C@H]1[C@]1(O)C[C@H]3O[C@]34C(=O)O[C@H]2[C@]14C | 709 s |
| COCCCN(C(=O)c1ccccc1)C(C)C(=O)c1c(C)[nH]c(C(=O)OC)c1C (stereo unspecified) | 736 s |
| CCOc1ccc(S(=O)(=O)Nc2cc(-c3cn4ccc(C)cc4n3)ccc2C)cc1 | 718 s |
| Cn1nc2n(c1=O)CCN(Cc1ccc(C(C)(C)C)cc1)C2 | 707 s |
| Cc1noc(-c2ccc(N3CCCC(C(=O)NC(C)c4ccco4)C3)nc2)n1 (stereo unspecified) | 746 s |
| Cc1cnc(C(=O)N2CC(c3nc(CCOCC4CC4)no3)C2)cn1 | 706 s |
| NC(=O)[C@H](Cc1ccccc1)NC(=O)[C@H](Cc1ccccc1)NC(=O)[C@@H]1CCCN1C(=O)[C@@H](N)Cc1ccc(O)cc1 | 678 s |
| CCn1nc(C)c2c(-c3ccccc3)cc(OC(C)C(=O)NCc3ccco3)nc21 (stereo unspecified) | 782 s |
| CC(=O)Nc1onc(C)c1-c1ccc(C)c(S(=O)(=O)N(C)Cc2ccccc2)c1 | 905 s |
| O=C(c1csc(N2CCCCCC2)n1)N1CCOCC1 | 767 s |
| CC1=C(c2ccccc2)S(=O)(=O)N=C1N1CCCN(C(=O)c2ccc(Cl)cc2)CC1 | 863 s |

Now from value to molecule:

| RP-LC retention time | Compound |
| --- | --- |
| 728 s | CC1=NOC(C)(CNS(=O)(=O)c2ccc(F)cc2)C1 (stereo unspecified) |
| 670 s | Cc1ccsc1C(=O)Nc1cccn2c(C)nnc12 |
| 1070 s | Cc1c(Cl)cccc1NC(=O)Cn1cnc2c(sc3nc(-c4ccccc4)ccc32)c1=O |
| 958 s | Cc1ccc(S(=O)(=O)N2C(=O)CCC2C(=O)NC2CCC(C)CC2)cc1 (stereo unspecified) |
| 757 s | Cn1c(=O)c2nc(SCCC(=O)Nc3ccc(Br)cc3)n(C)c2n(C)c1=O |
| 572 s | O=C(C1CCOC1)N1CCC(N(Cc2ccccc2)C2CCOCC2)CC1 (stereo unspecified) |
| 661 s | O=C(CSc1ccncc1)N1CCCn2nc(-c3ccc(Cl)cc3)cc2C1 |
| 1100 s | Cc1ccc(-c2nnc(Cc3nc(-c4ccc(F)cc4)no3)o2)cc1F |
| 970 s | Cc1nc2ccccc2nc1SCC(=O)c1ccccc1 |
| 905 s | Cc1ccc(N2CCN(C(=O)CN3CCN(Cc4cccc(Cl)c4)C3=O)CC2)cc1 |
| 827 s | COc1ccc(-c2noc(-c3nn(-c4ccc(OC)cc4)ccc3=O)n2)cc1 |
| 1030 s | CCOc1cccc(-c2noc(Cn3nc(-c4ccc(OC)cc4)ccc3=O)n2)c1 |
| 599 s | CN(C)c1ccc(CNC(=O)CCc2c(-c3ccc(Br)cc3)nc3ccccn23)cc1 |
| 872 s | O=C(c1cc2ccccc2o1)N1CCCC(c2nnc(C(F)(F)F)o2)C1 (stereo unspecified) |
| 708 s | COC(=O)c1ccc(NC(=O)Cn2c(-c3cccnc3)nc3ccccc32)cc1 |
| 775 s | CCCN1C(=O)c2ccccc2Sc2cc(-c3noc(CNC(C)=O)n3)ccc21 |
| 559 s | CCc1nnc2nc(N3CCN(C(=O)c4nccc5ccccc45)CC3)cc(C)n12 |
| 1040 s | CCCCN1C(=O)C(C)(C(=O)NCc2ccc(C)cc2)Oc2cccnc21 (stereo unspecified) |
| 695 s | COc1cc(-c2ccnc3nc(Cc4ccc(F)cc4)nn23)cc(OC)c1OC |
| 596 s | O=C(NCc1ccco1)c1ccc2c(c1)nc1n2CCCCC1 |
| 894 s | CCC1=C(c2ccc(C)cc2)S(=O)(=O)N=C1N1CCC(C(=O)NC(C)Cc2ccco2)CC1 (stereo unspecified) |
| 1010 s | CCc1nc(-c2cccc(-c3noc(CNC(=O)c4ccccc4)n3)c2)cs1 |
| 942 s | CC(C)NC(=O)N(CC(=O)N1CCc2sccc2C1COc1cccc(F)c1)C1CC1 (stereo unspecified) |
| 695 s | CC(=O)Nc1nsc(N2CCC(C(=O)N3CCN(c4ccccc4F)CC3)CC2)n1 |
| 1020 s | CC1=C(c2ccc(C(C)C)cc2)S(=O)(=O)N=C1N1CCC(NC(=O)CCC(C)C)CC1 |
| 810 s | COc1ccc(OCc2nc(CCN(C)C(=O)c3cc(OC)cc(OC)c3)no2)cc1 |

| RP-LC retention time | Compound |
| --- | --- |
| 668 s | CCOC(=O)c1c(C)[nH]c(C)c1S(=O)(=O)N1CCC(C(=O)NCc2cccc(C)c2)CC1 |
| 913 s | Cc1ccc(NC(=O)C2CCN(S(=O)(=O)c3ccc4c(c3)sc(=O)n4C)CC2)cc1C |
| 633 s | CCN(CC)CCCNC(=O)C1c2ccccc2C(=O)N1Cc1ccc(C)cc1 (stereo unspecified) |
| 685 s | CC(=O)Nc1ccc(CC(=O)NC(C)C(=O)N2CCCc3ccccc32)cc1 (stereo unspecified) |
| 1070 s | O=c1c2sccc2n(Cc2nc(-c3ccc(F)c(Cl)c3)no2)c(=O)n1-c1cccc(F)c1 |
| 797 s | O=c1c2ccccc2oc2nc(-c3ccco3)n(Cc3ccccc3)c(=O)c12 |
| 693 s | CC(C)Cn1c(=O)c(-c2ccc(C(=O)NCc3cccnc3)cc2)nc2ccccc21 |
| 960 s | Cc1ccc(S(=O)(=O)N2CCCC(CCC(=O)NCc3ccccc3)C2)cc1 (stereo unspecified) |
| 588 s | CCOCCCNC(=O)c1ccc2c(c1)nc1n2CCCCC1 |
| 758 s | CCC(=O)N1CCc2cc(N3CC(C(=O)Nc4ccccc4OC)CC3=O)ccc21 (stereo unspecified) |
| 538 s | COc1ncccc1CNC(=O)Cc1cccnc1 |
| 797 s | Cn1c(C2CCN(C(=O)c3cc4c(s3)CCCC4)C2)nc2cccnc21 (stereo unspecified) |
| 649 s | C=CCNC(=O)[C@@H]1[C@H](c2cc(OC)c(OC)c(OC)c2)c2cc3c(cc2[C@H](O)[C@H]1CO)OCO3 |
| 790 s | CC(=O)Nc1ccc(-c2nc(-c3cccc(-c4ccn[nH]4)c3)no2)cc1 |
| 785 s | Cc1nc(Oc2ccccc2)cc(N2CCN(C(=O)c3c(F)cccc3F)CC2)n1 |
| 726 s | CN1c2ccc(F)cc2C(=O)NC12CCN(C(=O)c1ccccc1)CC2 |
| 702 s | Cc1cc(C)cc(NC(=O)NCCn2nnc3cc(C(=O)N4CCCC4)ccc32)c1 |
| 1230 s | Cc1ccc(Sc2nccnc2N2CCCC(C(=O)N3CCN(c4ccc(F)cc4)CC3)C2)cc1 (stereo unspecified) |
| 616 s | CCN(CC)S(=O)(=O)c1ccc2c(c1)nnn2CCC(=O)N1CCN(c2ccccn2)CC1 |
| 673 s | O=C(CSc1ccc(N2CCCC(C(=O)NC3CC3)C2)nn1)Nc1ccccc1Cl (stereo unspecified) |
| 878 s | CSc1ccc(-c2nc3ccc(C)cn3c2NC2CCCCC2)cc1 |
| 1100 s | Cc1cccc(-n2c(=O)c3sccc3n(Cc3nc(-c4ccc(F)c(Cl)c4)no3)c2=O)c1 |
| 845 s | COc1ccc(-c2nc3ncccn3c2Nc2cccc(Cl)c2C)cc1 |
| 548 s | O=S(=O)(c1cccs1)N1CCN(c2ccc(Nc3cccnc3)nn2)CC1 |
| 549 s | CN1CCN(CCNC(=O)c2cccc(N3CCNC(c4ccccc4)C3)n2)CC1 (stereo unspecified) |
